Laboratory results reported in patent US5770734A, “N-substituted-2-aminoquinolines useful for treating hypofunction of the cholinergic system” (American Home Products Corporation, priority 1992, dated 1998).
Like-named read-outs stand apart in the source and are kept apart here.

Columns and labels:
M2 receptors [1] = molecular target: T1, M2 receptors (Rattus norvegicus, UniProt P10980); test: biochemical; assay type: binding; settings: read-out: ^3 H-QNB M2 IC50
T1 sequence (P10980 1-466): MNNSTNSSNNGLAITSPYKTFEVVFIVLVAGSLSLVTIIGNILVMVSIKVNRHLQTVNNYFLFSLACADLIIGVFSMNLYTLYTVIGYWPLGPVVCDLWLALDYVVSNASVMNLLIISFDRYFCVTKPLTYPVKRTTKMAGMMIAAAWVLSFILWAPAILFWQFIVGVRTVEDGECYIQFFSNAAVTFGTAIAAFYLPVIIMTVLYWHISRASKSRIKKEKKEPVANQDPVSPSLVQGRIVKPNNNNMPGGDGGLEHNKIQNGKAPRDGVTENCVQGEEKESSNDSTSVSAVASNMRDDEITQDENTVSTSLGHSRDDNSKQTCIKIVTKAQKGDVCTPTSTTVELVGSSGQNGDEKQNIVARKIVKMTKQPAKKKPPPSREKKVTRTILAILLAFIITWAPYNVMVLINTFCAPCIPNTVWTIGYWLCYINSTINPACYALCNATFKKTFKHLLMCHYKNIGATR

M2 receptors [2] = test: biochemical; assay type: binding; settings: Table 1; ratio of M2 IC50 to M1 IC50
M1 muscarinic receptor = molecular target: T2, M1 muscarinic receptor (Rattus norvegicus, UniProt P08482); test: M1 receptor binding ([^3 H]-pirenzepine); parameters: species or system rat (male Sprague-Dawley); settings: Table 1; rat brain tissue, [^3 H]PZ 0.5 nM; read-out: ^3 H-Pirenzepine M1 IC50
T2 sequence (P08482 1-460): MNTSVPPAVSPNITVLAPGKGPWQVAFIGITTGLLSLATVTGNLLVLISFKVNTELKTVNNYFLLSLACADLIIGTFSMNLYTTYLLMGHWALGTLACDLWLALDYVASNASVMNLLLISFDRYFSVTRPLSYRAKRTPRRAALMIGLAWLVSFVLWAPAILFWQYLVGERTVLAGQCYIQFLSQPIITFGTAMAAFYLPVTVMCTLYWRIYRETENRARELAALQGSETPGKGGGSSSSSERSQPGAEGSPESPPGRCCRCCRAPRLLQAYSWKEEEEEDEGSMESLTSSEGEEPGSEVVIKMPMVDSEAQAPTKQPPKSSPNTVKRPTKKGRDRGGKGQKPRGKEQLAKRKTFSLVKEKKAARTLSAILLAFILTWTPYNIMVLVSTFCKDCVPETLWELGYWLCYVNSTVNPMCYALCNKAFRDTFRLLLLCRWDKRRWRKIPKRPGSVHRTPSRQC
Description: Compounds are tested for their ability to affect M1 muscarinic binding through use of [^3 H]-pirenzepine ([^3 H]PZ) as a prototypic M1 receptor ligand. Male Sprague-Dawley (Charles River) rats are used. Dose selection is typically in the concentration range of 10^-9 to 10^-4 M. Test and reference compounds are dissolved and diluted in water or ethanol and are then added to the assay buffer. The appropriate vehicle is added to the assay buffer for control testing.
The rats (approximately 300 gm body weight) have free access to food and water and are housed in groups of four to six. On the test day, the rats are euthanized by decapitation and brain tissue is dissected and homogenized using a hand-held teflon-coated pestle, in 20 volumes of 0.32M sucrose (20 strokes at 4° C.). After centrifugation (747×g for 10 minutes at 4° C.), the resultant supernatant is decanted and recentrifuged (18677×g for 20 minutes at 4° C.). The resultant pellet is resuspended in the original volume of 0.32M sucrose and frozen. After thawing, the suspension is diluted (1:1 v/v) with 10 mM Na2 HPO4 /KH2 PO4 buffer (pH=7.4). [^3 H]PZ (0.5 nM, 0.04 μCi) is then incubated with a 100 μl sample of the tissue suspension in the above buffer (1 ml final volume, including a 10 μl sample of test compound or vehicle). […] After 60 minutes of incubation at 25° C. (in the dark), the binding is terminated by vacuum filtration onto Whatman GF/B filters (pre-soaked for 60 minutes in 0.1% (w/v) polyethylenimine to reduce non-specific binding). After three washes with the previously mentioned buffer (4° C., 3 ml/wash), the vacuum is allowed to run for two minutes before the filter-trapped radioactivity is assayed by liquid scintillation spectroscopy.
Data are presented as the percent inhibition ([control-test]/control×100%) or enhancement ([test-control]/control×100%) of [^3 H]PZ binding by the test or reference compound. The IC50 value (the drug concentration which causes a 50% inhibition of specific [^3 H]PZ binding) is calculated through the use of the EDOSE program (with probit transformation written by a person for use in STAT80). Increases in [^3 H]PZ are reported as percent increase (versus control) for a given test drug concentration.

[3] = tested on: Scopolamine-impaired Radial Arm Maze; test: Scopolamine-impaired Radial Arm Maze; assay type: in vivo, rat (male Sprague-Dawley)
Text: Male Sprague-Dawley (Charles River) rats on a 23-hour food deprivation schedule were trained in an eight arm radial maze with all arms baited. Each session consisted of two maze exposures, with a time limit of 300 seconds for each exposure. After four correct choices (first exposure), each animal was removed from the maze for one hour, then returned with only the remaining four arms baited (second exposure). Choice errors, consisting of delay errors (re-entry into any of the four arms chosen during the first exposure) and current errors (re-entry into any of the four arms chosen during the second exposure), as well as total errors were recorded. Durations for each exposure were also recorded. Statistical analysis was performed using a one-way ANOVA with Dunnett's t-test comparisons. Scopolamine (0.3 mg/kg, S.C.) and the compound of Example 1 (3,10 mg/kg, I.P,.) were administrered simultaneously 30 minutes prior to the test. All compounds were solubilized in phosphate buffered saline.

[4] = tested on: scopolamine-induced hyperactivity, a proposed muscarinic M1 -mediated effect; test: Scopolamine-induced hyperactivity (locomotor activity); assay type: in vivo, rat; parameters: Total activity: unit not given here
Description: Compounds were evaluated for the ability to attenuate scopolamine-induced hyperactivity, a proposed muscarinic M1 -mediated effect. Animals were permitted to habituate for 30 minutes in locomotor activity chambers (Digiscan, Omnitech; Columbus, Ohio) in which infrared detectors were used to measure movement in 3 axes. The animals were then injected i.p. with vehicle alone, scopolamine alone (1.7 mg/kg) or both scopolamine and one dose of the test compound. Animals were then replaced in the chambers and locomotor activity was measured for an additional 1 hour period. Total activity measures (vertical+horizintal movements) were collected and statistically analyzed in four 15 minute periods.

memory loss = settings: cat, rat, and monkey; muscarinic antagonist; cited from earlier work
[5] = tested on: scopolamine-induced memory loss; settings: cited from earlier work
[6] = tested on: Alzheimer's patients and healthy elderly patients; settings: cited from earlier work; for clinical efficacy: human, in vivo
[7] = tested on: scopolamine-induced memory loss; settings: rats; cited from earlier work
[8] = tested on: scopolamine-induced memory loss; settings: monkeys; cited from earlier work
[9] = scopolamine + Example 1 3.0 mg/kg I.P., N=11
[10] = scopolamine + Example 1 10.0 mg/kg I.P., N=12
[11] = scopolamine alone 0.3 mg/kg S.C., N=12

For `Cc1cc(NCCCN2CCOCC2)nc2ccccc12` [Example 1, 4-Methyl-N-[3-(4-morpholinyl)propyl]-2-quinolinamine (E)-2-butenedioate 1:1 hydrate], the IC50 (M2 receptors [1]) was 69.3 µM, the M2/M1 (M2 receptors [2]) was 58 and the IC50 (M1 muscarinic receptor) was 1.2 µM. The “effect on scopolamine impairment” value ([3]; 3.0 mg/kg I.P.) was “non-significantly reduced this scoplamine impairment”, the “effect on scopolamine impairment” value ([3]; 10 mg/kg I.P.) was “had no effect” and the “effect on increased time measures caused by scopolamine” value ([3]; 3, 10 mg/kg I.P.) was “largely unaffected”. The “cognitive impairments seen after scopolamine treatment (conclusion)” value ([3]; rat, in vivo) was “can reduce the cognitive impairments seen after scopolamine treatment”, the “Mean Error, Current” value [3, 9] was 0.55 and the “Mean Error, Delay” value [3, 9] was 1.77. For the same molecule, the “Mean Error, Total” value [3, 9] was 1.14, the “Mean Time 1.4” value [3, 9] was 90.10 s and the “Mean Time 5-” value [3, 9] was 121.73 s. The “Mean Time Total” value [3, 9] was 105.91 s, the “Mean Error, Current” value [3, 10] was 0.33 and the “Mean Error, Delay” value [3, 10] was 2.75. The “Mean Error, Total” value [3, 10] was 1.54, the “Mean Time 1.4” value [3, 10] was 113.8 s and the “Mean Time 5-” value [3, 10] was 148.1 s. For the same molecule, the “Mean Time Total” value [3, 10] was 130.92 s, the “attenuation of scopolamine hyperactivity” value ([4]; 30 and 54 mg/kg i.p., 30 and 45 minutes post-injection) was “produced an attenuation at 30 and 45 minutes post-injection that did not differ from the scopolamine-or vehicle-only controls” and the minimal effective dose ([4]; Rattus norvegicus, ip, attenuation of scopolamine (1.7 mg/kg) hyperactivity, i.p., read-out: minimum effective dose) was 30 mg/kg. The “in vivo M1 agonist activity, less effective than oxotremorine” value ([4]; relative to oxotremorine) was 100 fold, the Total activity ([4]; scopolamine + Example 1 30 mg/kg i.p., 15 min, N=10) was 3792 and the Total activity ([4]; scopolamine + Example 1 30 mg/kg i.p., 30 min, N=10) was 2069. The Total activity ([4]; scopolamine + Example 1 30 mg/kg i.p., 45 min, N=10) was 1839, the Total activity ([4]; scopolamine + Example 1 30 mg/kg i.p., 60 min, N=10) was 1697 and the Total activity ([4]; scopolamine + Example 1 54 mg/kg i.p., 15 min, N=10) was 3602. For the same molecule, the Total activity ([4]; scopolamine + Example 1 54 mg/kg i.p., 30 min, N=10) was 1899, the Total activity ([4]; scopolamine + Example 1 54 mg/kg i.p., 45 min, N=10) was 1722 and the Total activity ([4]; scopolamine + Example 1 54 mg/kg i.p., 60 min, N=10) was 1535.

In the case of `CN1[C@@H]2C[C@@H](OC(=O)[C@H](CO)c3ccccc3)C[C@H]1[C@@H]1O[C@@H]12` [Scopolamine], the “memory loss in animals” value (memory loss) is given as “can be artificially induced”, the “memory loss in normal humans” value ([5]; muscarinic antagonist) is given as “can be artificially induced” and the “effect on delay and total errors” value ([3]; scopolamine 0.3 mg/kg S.C., compared to vehicle) is given as “produced a significant impairment in both delay and total errors”. For the same molecule, the “Mean Error, Current” value [3, 11] was 1.0, the “Mean Error, Delay” value [3, 11] was 2.80 and the “Mean Error, Total” value [3, 11] was 1.90. The “Mean Time 1.4” value [3, 11] was 87.25 s, the “Mean Time 5-” value [3, 11] was 169.80 s and the “Mean Time Total” value [3, 11] was 128.50 s. For the same molecule, the “effect on total activity” value ([4]; scopolamine 1.7 mg/kg, 15, 30, 45 and 60 minutes post-injection) was “significantly elevated total activity at all four time points”, the Total activity ([4]; scopolamine alone 1.7 mg/kg i.p., first experiment (Example 1), 15 min, N=9) was 4349 and the Total activity ([4]; scopolamine alone 1.7 mg/kg i.p., first experiment (Example 1), 30 min, N=9) was 2816. For the same molecule, the Total activity ([4]; scopolamine alone 1.7 mg/kg i.p., first experiment (Example 1), 45 min, N=9) was 2638, the Total activity ([4]; scopolamine alone 1.7 mg/kg i.p., first experiment (Example 1), 60 min, N=9) was 1858 and the Total activity ([4]; scopolamine alone 1.7 mg/kg i.p., second experiment (oxotremorine), 15 min, N=9) was 5486. It also gave a Total activity ([4]; scopolamine alone 1.7 mg/kg i.p., second experiment (oxotremorine), 30 min, N=9) of 4720, a Total activity ([4]; scopolamine alone 1.7 mg/kg i.p., second experiment (oxotremorine), 45 min, N=9) of 3718 and a Total activity ([4]; scopolamine alone 1.7 mg/kg i.p., second experiment (oxotremorine), 60 min, N=9) of 3510.

In the case of `COC(=O)C1=CCCN(C)C1` [arecoline], the clinical efficacy [6] is given as “neither physostigmine nor arecoline have clinical efficacy due to undesirable side-effects, a short duration of action and a narrow active dose range” and the “reversal of scopolamine-induced deficit” value [7] is given as “can be reversed”.

In the case of `CNC(=O)Oc1ccc2c(c1)[C@]1(C)CCN(C)[C@@H]1N2C` [physostigmine], the “reversal of scopolamine-induced deficit” value ([5]; humans) is given as “can be reversed”, the clinical efficacy [6] is given as “neither physostigmine nor arecoline have clinical efficacy due to undesirable side-effects, a short duration of action and a narrow active dose range” and the “reversal of scopolamine-induced deficit” value [8] is given as “can be reversed”.

For lecithin, the “improvement on cognitive tests” value ([6]; Alzheimer's patients and healthy elderly patients) is given as “No significant improvement was observed on any cognitive test”.
